Measurements: patent US10888550B2, “Pyrazole derivatives as MALT1 inhibitors” (Janssen Pharmaceutica NV, priority 2018, dated 2021)
pIC50: −log10 of the molar value.

Columns and labels:
[1] = target: full-length MALT1 protein (Strep-MALT1(1-824)-His) (Homo sapiens (Human), UniProt Q9UDY8); test: MALT1 Biochemical Protease Assay; conditions: read-out: MALT1_Biochemical activity (Ac-LRSR-amc) IC50; 10 nM FL MALT1, 200 μM Ac-LRSR-AMC, 50 min pre-incubation, 4 h at RT
Text: From this an ICso value (inhibitory concentration causing 50% inhibition) can be obtained.

[2] = system: IL6 secretion, OCI-LY3 cells; test: Human IL6 Mesoscale assay (OCI-LY3); type: cell-based; conditions: 24 h incubation
[3] = system: IL10 secretion, OCI-LY3 cells; test: Human IL10 Mesoscale assay (OCI-LY3); type: cell-based; conditions: 24 h incubation

full-length MALT1 protein (Strep-MALT1(1-824)-His), sequence (Q9UDY8 whole entry): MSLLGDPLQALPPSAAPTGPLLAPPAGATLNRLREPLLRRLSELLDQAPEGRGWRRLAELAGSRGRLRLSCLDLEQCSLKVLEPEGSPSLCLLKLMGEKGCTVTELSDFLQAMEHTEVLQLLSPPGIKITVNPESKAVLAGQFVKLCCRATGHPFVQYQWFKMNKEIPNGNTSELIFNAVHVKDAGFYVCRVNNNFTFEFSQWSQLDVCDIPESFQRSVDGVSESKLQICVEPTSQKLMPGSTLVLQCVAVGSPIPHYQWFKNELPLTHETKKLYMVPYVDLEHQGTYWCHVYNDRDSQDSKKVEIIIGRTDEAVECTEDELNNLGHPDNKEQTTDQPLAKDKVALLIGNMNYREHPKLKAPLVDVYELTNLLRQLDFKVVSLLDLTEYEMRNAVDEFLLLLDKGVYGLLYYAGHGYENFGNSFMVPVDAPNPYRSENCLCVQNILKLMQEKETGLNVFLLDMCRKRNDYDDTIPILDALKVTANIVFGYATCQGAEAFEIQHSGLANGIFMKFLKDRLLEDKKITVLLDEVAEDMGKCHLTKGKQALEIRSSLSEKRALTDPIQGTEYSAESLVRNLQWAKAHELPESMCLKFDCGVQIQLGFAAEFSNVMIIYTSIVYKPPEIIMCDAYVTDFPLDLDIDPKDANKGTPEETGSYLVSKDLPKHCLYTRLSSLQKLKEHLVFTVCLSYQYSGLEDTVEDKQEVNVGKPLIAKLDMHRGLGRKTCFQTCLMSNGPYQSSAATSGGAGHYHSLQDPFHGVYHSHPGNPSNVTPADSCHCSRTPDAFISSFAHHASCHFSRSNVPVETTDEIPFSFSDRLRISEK

pIC50 [1] | pIC50 [2] | pIC50 [3] | Compound
7.30 | 7.33 | 7.51 | O=C(Nc1cnc(-n2nccn2)c(C(F)(F)F)c1)c1cnn(-c2ccc(F)c3nccn23)c1C(F)(F)F [Cpd 4, N-(6-(2H-1,2,3-triazol-2-yl)-5-(trifluoromethyl)pyridin-3-yl)-1-(8-fluoroimidazo[1,2-a]pyridin-5-yl)-5-(trifluoromethyl)-1H-pyrazole-4-carboxamide]
7.31 | 7.04 | 7.06 | NC(=O)c1ccc(-n2ncc(C(=O)Nc3cnc(-n4nccn4)c(Cl)c3)c2C(F)(F)F)n2ccnc12 [Cpd 1, 5-(4-((5-chloro-6-(2H-1,2,3-triazol-2-yl)pyridin-3-yl)carbamoyl)-5-(trifluoromethyl)-1H-pyrazol-1-yl)imidazo[1,2-a]pyridine-8-carboxamide]
7.72 | 7.66 | 7.72 | N#Cc1ccc(-n2ncc(C(=O)Nc3cnc(-n4nccn4)c(Cl)c3)c2C(F)(F)F)c2ccnn12 [Cpd 13, N-(5-chloro-6-(2H-1,2,3-triazol-2-yl)pyridin-3-yl)-1-(7-cyanopyrazolo[1,5-a]pyridin-4-yl)-5-(trifluoromethyl)-1H-pyrazole-4-carboxamide]
7.09 | 6.62 | 6.89 | Cc1cnc(-c2ncc(NC(=O)c3cnn(-c4ccc(F)c5nccn45)c3C(F)(F)F)cc2Cl)o1 [Cpd 9, N-(5-chloro-6-(5-methyloxazol-2-yl)pyridin-3-yl)-1-(8-fluoroimidazo[1,2-a]pyridin-5-yl)-5-(trifluoromethyl)-1H-pyrazole-4-carboxamide]
